Assay results taken from patent US20250154105A1, “POLYCYCLIC COMPOUND AND USE THEREOF” (TYK MEDICINES, INC., priority 2021, published 2025).

Key:
[1] = tested on: human pleural mesothelioma cells NCI-H226; experiment: Cell anti-proliferation experiment (CCK8), NCI-H226; assay type: cell-based
Description: TEST EXAMPLE 1 CELL ANTI-PROLIFERATION EXPERIMENT
Determination of proliferation inhibition of YAP-TEAD inhibitor compounds on human pleural mesothelioma cells NCI-H226
Experimental materials and equipments: Human pleural mesothelioma cells NCI-H226 was purchased from NANJING COBIOER BIOSCIENCES CO., LTD. RPMI-1640 medium (Bio-Channel), DMSO (dimethyl sulfoxide), CCK8 (WST-8) Cell Assay Kit (Beyotime), 0.25% EDTA-Tripsin (trypsin digest), 1×PBS (phosphate buffer, PH7.2), 96-well plate (Corning), fetal bovine serum (FBS), 10,000 U/mL penicillin-G/streptomycin, high-speed freezing centrifuge (EPPENDORF 5810R), enzyme-linked immunosorbent assay (Tecan Spark).
1. Cell plating • A) Tumor cells were cultured to 80-90% density in RPMI-1640 (containing 10% FBS and 100 U/mL penicillin-G/streptomycin) under the condition of 37° C., 5% CO2 and saturated humidity. • B) The culture medium was removed from the 10 cm culture dish. • C) Cells were washed with 10 ml 1×PBS. • D) 4 ml of 0.25% EDTA-Tripsin was added to digest pancreatin for 5 minutes in an incubator at 37° C. and 5% CO2. Then the mixture was transferred to a 15 ml centrifuge tube, and centrifuged for 5 minutes at 200 g. The supernatant was discarded to obtain cell precipitation. • E) The cell precipitation was resuspended with 4 ml of […], counted and adjusted to 10,000 cells/ml. • F) The cell suspension was added to a 96-well plate with a volume of 100 μL per well and cultured overnight in an incubator at 37° C. and 5% CO2.
• Compound dilution • A) Preparation of gradient dilution solutions of the tested compounds: the tested compounds was configured to 1 mM stock solution. Then […] of stock solution was dissolved in 1.5 ml of DMSO-free culture solution, and then 3-fold continuous gradient dilution with 0.1% DMSO culture solution was performed to get a total of 9 concentrations. The diluted concentrations of the compound were as follows: 333.33 nM, 111.11 nM, 37.03 nM, 12.35 nM, 4.15 nM, 1.37 nM, 0.46 nM, 0.15 nM • B) After full mixing, 100 μL of culture compound solution was taken to replace the culture solution in the cell culture plate, with 4 duplicated wells at each concentration; • C) The cells were transferred to the incubator to incubate for 3 days.
• A) the cell culture plate was taken out and added with 10 μl of CCK-8 (WST-8) solution per well in the biosafety cabinet; • B) The cell culture plate was put back into the incubator and continued to incubate for 3 hours; • C) 450 nm wavelength was selected to measure absorbance value on TECAN enzyme linked immunosorbent assay detector.
The following formula was used to calculate the cell viability (% Cell Viability); • Cell Viability (%)=[A(Drug-added)-A(Blank)]/[A(0 Drug-added)-A(blank)][…] • A (Drug-added): The absorbance of wells containing cells, CCK8 solution, and drug solution. • A (Blank): The absorbance of wells containing culture medium and CCK8 solution, but without cells. • A (0 Drug-added): The absorbance of wells containing cells, CCK8 solution, but without drug solution. • Cell viability: Cell proliferation viability or cytotoxicity viability was determined by the IC50 value obtained by curve fitting using GraphPad Prism 8 software.

YAP-TEAD = YAP-TEAD inhibitor activity by Nano luciferase method (8xGTiiC-nLuc reporter in 293T cells); assay type: cell-based; conditions: Homo sapiens, HEK-293T, 48 hours incubation, read-out: Nano-luciferase detection (IC50)
Description: EXAMPLE 2: YAP-TEAD INHIBITOR ACTIVITY WAS DETECTED BY NANO LUCIFERASE METHOD
(1) Experimental materials and equipments: 293T cells were purchased from NANJING COBIOER BIOSCIENCES CO., LTD. DMEM medium (High sugar, no phenol red, Bio-Channel), DMSO (dimethyl sulfoxide), Lipo6000™ transfection reagent (Beyotime), pGL3B-8xGTiiC-nLuc-CMV-fLuc plasmid, 0.25% EDTA-Tripsin (trypsin digest), 1×PBS (phosphate buffer, PH7.2), 96-well white cell culture plate (PerkinElmer), fetal bovine serum (FBS), 10,000 U/mL penicillin-G/streptomycin, high-speed freezing centrifuge (EPPENDORF 5810R), 37° C. CO2 incubator, Vi-cell® Cell Counter, Envision Microplate Reader (PerkinElmer).
The revived 293T cells were inoculated into a 10 cm culture dish and placed in an incubator with 5% CO2, and cultured at constant temperature of 37° C. To ensure transfection efficiency, cells at logarithmic phase (cell density of approximately 50%-70%) should be used.
On the day before transfection, cells at the logarithmic phase were digested with Trypsin-EDTA, and culture medium was added to terminate digestion. The cell suspension was prepared by blowing and mixing using a pipette.
Cell concentration was measured using Vi-cell, and the cell suspension was diluted to a suspension of 5*10^^5 cells per milliliter. After preparing the cell suspension, the suspension was gently mixed. 10 ml of liquid was added to a 10 cm culture dish. In this way, the number of cells in each 10 cm culture dish was 5*10^^6. The cells were incubated at a constant temperature of 37° C. for 1 day in an incubator with 5% CO2.
Two clean and sterile centrifuge tubes were taken and added with 750 μL opti-MEM Medium without antibiotics and serum, respectively. Then one tube was added with 15 μg Plasmid (pGL3B-8xGTiiC-nLuc-CMV-fLuc), and gently blew and mixed well using a pipette; the other tube was added with Lipo6000 transfection reagent, and gently blew and mixed using a pipette. After standing at room temperature for 5 minutes, the culture solution containing DNA was added gently to the culture solution containing Lipo6000 transfection reagent, and mixed well by gently inverting the centrifuge tube, then standing at room temperature for 5 minutes.
The above mixture was added evenly to a 10 cm culture dish and replaced with fresh complete culture medium after 6 hours of cultivation.
After transfection for 1 day, cells were digested with Trypsin EDTA, and culture medium was added to terminate the digestion. The cell suspension was prepared by blowing and mixing using a pipette.
Cell concentration was measured using Vi-cell, and the cell suspension was diluted to a suspension of 20000 cells per milliliter.
After preparing the cell suspension, the suspension was gently mixed, and added to 96-well plate with 100 μL per well. Thus, the density of the cells to be tested is 2000 cells per well.
The inoculated cell culture plate was placed in the incubator for cultivation, and after about 24 hour, compounds with concentration gradient were added.
10 mM compound stock solution was diluted with culture medium to 50 μM. Compound solution of 50 μM was added to the third column of the deep well plate, 216 μL of culture medium containing 0.5% DMSO was added to the fourth to eleventh columns, successively.
Gradient dilution: taking 100 μL of solution from the third column and adding the solution to the fourth column and mixing well; then taking 100 µL of solution from the fourth column again and adding the solution to the fifth column, repeating this operation until the eleventh column.
Taking 25 μL of compound solution from the deep well plate and adding it to a 96-well culture plate using a multi-channel pipette. Repeating four times on the 96 well plate for each compound. Finally, a concentration gradient of 1:3.16 was formed in the 96-well plate with a maximum concentration of 10,000 nM. The • (5) Addition of Nano Luciferase Detection Reagent and Read […]

Row | IC50 [1] [nM] | IC50 (YAP-TEAD) [nM] | SMILES
1 | 1000 to 5000 | 1000 to 5000 | C[C@H](NC(=O)c1ccc2c(c1)c1nn(C)cc1c(=O)n2-c1ccc(C(F)(F)F)cc1)c1cccnc1 [Example T-146]
2 | ≤ 1000 | ≤ 1000 | CC(C)NC(=O)c1ccc2c(ccc(=O)n2-c2ccc(C(F)(F)F)cc2)c1 [Example T-3]
3 | ≤ 1000 | ≤ 1000 | C[C@H](NC(=O)c1ccc2c(c1)c1nocc1c(=O)n2-c1ccc(C(F)(F)F)cc1)c1ccccn1 [Example T-395]
4 | ≤ 1000 | ≤ 1000 | C[C@H](NC(=O)c1ccc2c(c1)c1nn(C)cc1c(=O)n2-c1ccc(C(F)(F)F)cc1)c1ccccc1 [Example T-138]
5 | 1000 to 5000 | 1000 to 5000 | C[C@H](NC(=O)c1cnc2c(c1)c1cscc1c(=O)n2-c1ccc(C(F)(F)F)nn1)c1ccccn1 [Example T-398]
6 | ≤ 1000 | ≤ 1000 | C=CC(=O)Nc1ccc2c(c1)c1nn(C)cc1c(=O)n2-c1ccc(OC(F)(F)F)cc1 [Example T-232]
7 | 1000 to 5000 | 1000 to 5000 | C[C@H](C(=O)Nc1ccc2c(c1)c1nn(C)cc1c(=O)n2-c1ccc(C(F)(F)F)cc1)c1ccccn1 [Example T-169]
8 | ≤ 1000 | ≤ 1000 | C[C@H](NC(=O)c1ccc2c(c1)c1c(c(=O)n2-c2ccc(C(F)(F)F)cc2)CC(F)(F)C1)c1ccccn1 [Example T-294]
9 | 1000 to 5000 | 1000 to 5000 | Cn1cc2c(=O)n(-c3ccc(C(F)(F)F)cc3)c3ccc(C(=O)NCc4cnccn4)cc3c2n1 [Example T-140]
10 | ≤ 1000 | ≤ 1000 | Cc1scc2c(=O)n(-c3ccc(C(F)(F)F)cc3)c3ccc(C(=O)N[C@@H](C)c4ccccn4)cc3c12 [Example T-296]
11 | ≤ 1000 | ≤ 1000 | Cn1cc2c(=O)n(-c3ccc(C(F)(F)F)cc3)c3ccc(NC(=O)C(F)(F)F)cc3c2n1 [Example T-174]
12 | ≤ 1000 | ≤ 1000 | CNS(=O)(=O)c1ccc2c(c1)-c1cn(C)nc1CC(=O)N2c1ccc(C(F)(F)F)cc1 [Example T-52]
13 | 1000 to 5000 | 1000 to 5000 | COC[C@@H](C)NC(=O)c1ccc2c(c1)c1cnccc1c(=O)n2-c1ccc(C(F)(F)F)cc1 [Example T-448]
14 |  | ≤ 1000 | C[C@H](NC(=O)c1ccc2c(c1)c1c(c(=O)n2-c2ccc(C(F)(F)F)cc2)CC(F)(F)CC1)c1ccccn1 [Example T-308]
15 | 1000 to 5000 | 1000 to 5000 | CNS(=O)(=O)c1ccc2c(c1)c1ccccc1c(=O)n2-c1ccc(C(F)(F)F)cc1 [Example T-199]
16 | ≤ 1000 | ≤ 1000 | C[C@H](NC(=O)c1ccc2c(c1)c1c(c(=O)n2-c2ccc(C(F)(F)F)cc2)CCC1)c1ccccn1 [Example T-249]
17 | ≤ 1000 | ≤ 1000 | Cc1scc2c1c(=O)n(-c1ccc(C(F)(F)F)cc1)c1ccc(C(=O)N[C@@H](C)c3ccccn3)cc21 [Example T-297]

Row | IC50 [1] [nM] | IC50 (YAP-TEAD) [nM] | SMILES
18 | ≤ 1000 | ≤ 1000 | Cc1ccc2c(=O)n(-c3ccc(C(F)(F)F)cc3)c3ncc(C(=O)N[C@@H](C)c4ccccn4)cc3c2c1 [Example T-408]
19 |  | 1000 to 5000 | O=C(c1ccc2c(c1)c(=O)ccn2-c1ccc(C(F)(F)F)cc1)N1CC(O)C1 [Example T-37]
20 |  | 1000 to 5000 | CC(C)(C)OC(=O)c1ccc2c(c1)c(=O)ccn2-c1ccc(C(F)(F)F)cc1 [Example T-4]
21 | 1000 to 5000 |  | CN(C)C(=O)c1ccc2c(c1)c1nn(C)cc1c(=O)n2-c1ccc(C(F)(F)F)cc1 [Example T-112]
22 |  | 1000 to 5000 | COC[C@@H](C)NC(=O)c1ccc2c(c1)c(=O)ccn2-c1ccc(C(F)(F)F)cc1 [Example T-36]
23 |  | ≤ 1000 | C[C@H](NC(=O)c1ccc2c(c1)c1c(c(=O)n2-c2ccc(C(F)(F)F)cc2)C(F)(F)CCC1)c1ccccn1 [Example T-309]
24 | 1000 to 5000 |  | Cn1cc2c(=O)n(-c3ccc(C(F)(F)F)cc3)c3ccc(C(=O)N4CC(O)C4)cc3c2n1 [Example T-103]
25 | 1000 to 5000 |  | C[C@@H](NC(=O)c1ccc2c(c1)c1nn(C)cc1c(=O)n2-c1ccc(C(F)(F)F)cc1)c1ccccn1 [Example T-106]
26 | 1000 to 5000 |  | Cn1cc2c(=O)n(-c3ccc(C(F)(F)F)cc3)c3ccc(C(=O)N4CC(C#N)C4)cc3c2n1 [Example T-104]
27 |  | ≤ 1000 | C[C@H](NC(=O)c1ccc2c(c1)c1c(c(=O)n2-c2ccc(C(F)(F)F)cc2)CC(F)CC1)c1ccccn1 (stereo partly drawn) [Example T-304]
28 |  | 1000 to 5000 | CC1OCc2c1c(=O)n(-c1ccc(C(F)(F)F)cc1)c1ncc(C(=O)N[C@@H](C)c3ccccn3)cc21 (stereo partly drawn) [Example T-438]
29 | 1000 to 5000 |  | COC[C@@H](C)NC(=O)c1ccc2c(c1)c1nn(C)cc1c(=O)n2-c1ccc(C(F)(F)F)cc1 [Example T-119]
30 | 1000 to 5000 |  | C[C@H](NC(=O)c1ccc2c(c1)c1nn(C)cc1c(=O)n2-c1ccc(C(F)(F)F)cc1)c1ccncc1 [Example T-147]
31 |  | 1000 to 5000 | CC(=O)Nc1ccc2c(c1)c(C)cc(=O)n2-c1ccc(C(F)(F)F)cc1 [Example T-444]
32 |  | ≤ 1000 | CCS(=O)(=O)Nc1ccc2c(c1)c(C)cc(=O)n2-c1ccc(C(F)(F)F)cc1 [Example T-442]
33 |  | ≤ 1000 | Cc1cc2cc(C(=O)N[C@@H](C)c3cccc(N)n3)cnc2n(-c2ccc(C(F)(F)F)cc2)c1=O [Example T-461]
34 |  | ≤ 1000 | C[C@H](NC(=O)c1ccc2c(c1)c1c(c(=O)n2-c2ccc(C(F)(F)F)cc2)C(F)CCC1)c1ccccn1 (stereo partly drawn) [Example T-305]
